Patent publication US10040781B2, “Tank-binding kinase inhibitor compounds” (Gilead Sciences, Inc., priority 2014, dated 2018)

How the values were obtained:
IKKε = IKKε (Homo sapiens (Human), UniProt Q14164); assay: IKKε TR-FRET enzymatic assay; assay type: biochemical; conditions: TR-FRET, 2×Km ATP; geometric mean of minimum four determinations; read-out: IKKe IC50
hJAK2 = hJAK2 (Homo sapiens (Human), UniProt O60674); assay: hJAK2 LANCE TR-FRET enzymatic assay; assay type: biochemical; conditions: read-out: JAK2 IC50
TBK1 = TBK1 (Homo sapiens (Human), UniProt Q9UHD2); assay: TBK1 TR-FRET enzymatic assay;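 also: phosphorylation of a biotinylated Ser/Thr peptide by purified full-length recombinant TBK1, read by TR-FRET after 240 min at 25 °C, IC50 is the geometric mean of at least four runs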
Sequence of TBK1 (Q9UHD2 whole entry): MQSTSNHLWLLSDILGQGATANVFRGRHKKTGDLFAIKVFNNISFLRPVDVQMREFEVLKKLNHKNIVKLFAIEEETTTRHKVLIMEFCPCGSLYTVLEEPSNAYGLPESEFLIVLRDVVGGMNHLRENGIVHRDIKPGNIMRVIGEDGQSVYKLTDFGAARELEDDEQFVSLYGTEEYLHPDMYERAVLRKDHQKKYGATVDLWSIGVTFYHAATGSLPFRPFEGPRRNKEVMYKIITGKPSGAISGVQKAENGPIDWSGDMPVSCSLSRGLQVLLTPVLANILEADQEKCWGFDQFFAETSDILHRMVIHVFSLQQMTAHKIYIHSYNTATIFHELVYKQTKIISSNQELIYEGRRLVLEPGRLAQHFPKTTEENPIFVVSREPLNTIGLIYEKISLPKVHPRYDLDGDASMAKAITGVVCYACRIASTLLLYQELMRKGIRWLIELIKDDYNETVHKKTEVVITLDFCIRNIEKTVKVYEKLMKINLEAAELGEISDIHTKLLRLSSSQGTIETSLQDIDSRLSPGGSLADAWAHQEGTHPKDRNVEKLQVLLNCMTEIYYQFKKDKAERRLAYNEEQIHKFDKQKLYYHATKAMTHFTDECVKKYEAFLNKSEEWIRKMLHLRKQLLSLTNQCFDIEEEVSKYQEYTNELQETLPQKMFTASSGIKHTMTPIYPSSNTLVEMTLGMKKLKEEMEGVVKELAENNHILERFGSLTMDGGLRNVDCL

Sequence of hJAK2 (O60674 whole entry): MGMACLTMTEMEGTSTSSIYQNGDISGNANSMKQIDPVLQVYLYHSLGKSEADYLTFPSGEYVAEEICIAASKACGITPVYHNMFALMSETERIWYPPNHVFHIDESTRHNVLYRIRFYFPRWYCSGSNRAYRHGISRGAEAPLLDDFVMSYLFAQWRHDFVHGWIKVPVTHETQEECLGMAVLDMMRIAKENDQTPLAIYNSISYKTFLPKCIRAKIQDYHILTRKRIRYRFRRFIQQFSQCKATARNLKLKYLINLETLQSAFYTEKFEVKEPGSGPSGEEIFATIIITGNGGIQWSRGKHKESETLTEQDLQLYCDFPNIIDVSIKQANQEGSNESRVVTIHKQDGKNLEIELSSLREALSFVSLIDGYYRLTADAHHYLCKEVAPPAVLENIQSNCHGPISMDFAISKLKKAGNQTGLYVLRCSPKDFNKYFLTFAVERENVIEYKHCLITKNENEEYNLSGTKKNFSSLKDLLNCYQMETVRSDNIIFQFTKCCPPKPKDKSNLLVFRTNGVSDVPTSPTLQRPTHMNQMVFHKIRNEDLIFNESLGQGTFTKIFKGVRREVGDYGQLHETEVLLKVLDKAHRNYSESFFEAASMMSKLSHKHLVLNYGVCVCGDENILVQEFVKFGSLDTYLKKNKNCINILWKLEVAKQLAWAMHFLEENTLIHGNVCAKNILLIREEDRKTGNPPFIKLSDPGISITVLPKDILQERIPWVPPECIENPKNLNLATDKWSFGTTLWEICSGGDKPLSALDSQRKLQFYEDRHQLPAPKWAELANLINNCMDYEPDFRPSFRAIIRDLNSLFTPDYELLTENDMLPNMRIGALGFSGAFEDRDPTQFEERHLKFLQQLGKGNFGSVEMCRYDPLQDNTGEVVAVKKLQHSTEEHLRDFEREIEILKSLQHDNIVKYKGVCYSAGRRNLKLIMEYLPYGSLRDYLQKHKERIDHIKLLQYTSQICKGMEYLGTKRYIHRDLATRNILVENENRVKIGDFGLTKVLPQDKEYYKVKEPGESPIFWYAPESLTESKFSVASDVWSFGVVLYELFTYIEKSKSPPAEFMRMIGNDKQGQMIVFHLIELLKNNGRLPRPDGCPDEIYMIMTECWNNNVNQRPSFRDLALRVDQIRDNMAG
Sequence of IKKε (Q14164 whole entry): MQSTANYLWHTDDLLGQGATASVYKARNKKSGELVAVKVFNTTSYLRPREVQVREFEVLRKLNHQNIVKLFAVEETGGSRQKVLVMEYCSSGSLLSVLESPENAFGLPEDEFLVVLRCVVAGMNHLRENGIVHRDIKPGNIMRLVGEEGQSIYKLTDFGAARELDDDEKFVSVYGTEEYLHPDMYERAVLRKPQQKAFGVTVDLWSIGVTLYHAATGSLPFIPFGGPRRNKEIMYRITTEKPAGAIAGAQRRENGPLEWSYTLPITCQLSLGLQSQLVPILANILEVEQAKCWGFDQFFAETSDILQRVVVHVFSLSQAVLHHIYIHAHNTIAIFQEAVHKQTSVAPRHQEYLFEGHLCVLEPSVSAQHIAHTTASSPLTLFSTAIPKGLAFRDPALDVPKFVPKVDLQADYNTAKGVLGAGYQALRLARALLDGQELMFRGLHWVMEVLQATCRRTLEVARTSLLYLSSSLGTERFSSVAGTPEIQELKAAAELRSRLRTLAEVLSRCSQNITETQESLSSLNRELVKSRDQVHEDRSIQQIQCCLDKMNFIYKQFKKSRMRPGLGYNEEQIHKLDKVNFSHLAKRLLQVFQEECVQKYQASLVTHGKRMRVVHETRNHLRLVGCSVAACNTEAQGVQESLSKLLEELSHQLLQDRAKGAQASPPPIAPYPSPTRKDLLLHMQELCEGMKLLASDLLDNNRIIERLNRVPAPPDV

Structure (SMILES) | IC50 (IKKε) [µM] | IC50 (hJAK2) [µM] | IC50 (TBK1) [µM]
N#Cc1cc(-c2ncnc(Nc3cnn(C(F)F)c3)n2)ccc1O[C@H]1CCNC[C@H]1F [Example 453, 5-(4-((1-(difluoromethyl)-1H-pyrazol-4-yl)amino)-1,3,5-triazin-2-yl)-2-(((3R,4S)-3-fluoropiperidin-4-yl)oxy)benzonitrile] | 0.577 | ≥ 1 | 0.039
CC(C)(C)n1cc(Nc2ncnc(-c3ccc(O[C@H]4CCN(C(=O)CCO)C[C@H]4F)c(C#N)c3)n2)cn1 [Example 458, 5-(4-((1-(tert-butyl)-1H-pyrazol-4-yl)amino)-1,3,5-triazin-2-yl)-2-(((3R,4S)-3-fluoro-1-(3-hydroxypropanoyl)piperidin-4-yl)oxy)benzonitrile] | 0.061 | 0.223 | 0.023
C[C@H](O)C(=O)N1CC[C@H](Oc2ccc(-c3ncnc(Nc4ccc(N5CCO[C@@H](CO)C5)cc4)n3)cc2C#N)C(F)(F)C1 [Example 460, 2-(((S)-3,3-difluoro-1-((S)-2-hydroxypropanoyl)piperidin-4-yl)oxy)-5-(4-((4-((R)-2-(hydroxymethyl)morpholino)phenyl)amino)-1,3,5-triazin-2-yl)benzonitrile] | 0.001 | 0.131 | 0.002
CC(C)[C@H](O)C(=O)N1CC[C@H](Oc2ccc(-c3ncnc(Nc4ccc(N5CCN(C6COC6)CC5)cc4)n3)cc2C#N)[C@H](F)C1 [Example 461, 2-(((3R,4S)-3-fluoro-1-((S)-2-hydroxy-3-methylbutanoyl)piperidin-4-yl)oxy)-5-(4-((4-(4-(oxetan-3-yl)piperazin-1-yl)phenyl)amino)-1,3,5-triazin-2-yl)benzonitrile] | 0.063 | 0.93 | 0.016
Cn1cc(C(O)C(=O)N2CC[C@H](Oc3ccc(-c4ncnc(Nc5ccc(N6CCN(C7COC7)CC6)cc5)n4)cc3C#N)[C@H](F)C2)cn1 (stereo partly drawn) [Example 463, 2-(((3R,4S)-3-fluoro-1-(2-hydroxy-2-(1-methyl-1H-pyrazol-4-yl)acetyl)piperidin-4-yl)oxy)-5-(4-((4-(4-(oxetan-3-yl)piperazin-1-yl)phenyl)amino)-1,3,5-triazin-2-yl)benzonitrile] | 0.068 | 0.272 | 0.03
N#CCC(=O)N1CC[C@H](Oc2ccc(-c3ncnc(Nc4ccc(N5CCO[C@@H](CO)C5)cc4)n3)cc2C#N)[C@H](F)C1 [Example 467, 2-(((3R,4S)-1-(2-cyanoacetyl)-3-fluoropiperidin-4-yl)oxy)-5-(4-((4-((R)-2-(hydroxymethyl)morpholino)phenyl)amino)-1,3,5-triazin-2-yl)benzonitrile] | 0.004 | 0.171 | 0.004
C[C@H](O)CC(=O)N1CC[C@H](Oc2ccc(-c3ncnc(Nc4ccc(N5CCN(C6COC6)CC5)cc4)n3)cc2C#N)[C@H](F)C1 [Example 470, 2-(((3R,4S)-3-fluoro-1-((S)-3-hydroxybutanoyl)piperidin-4-yl)oxy)-5-(4-((4-(4-(oxetan-3-yl)piperazin-1-yl)phenyl)amino)-1,3,5-triazin-2-yl)benzonitrile] | 0.044 | ≥ 1 | 0.012
C[C@@H](O)CC(=O)N1CC[C@H](Oc2ccc(-c3ncnc(Nc4ccc(N5CCN(C6COC6)CC5)cc4)n3)cc2C#N)[C@H](F)C1 [Example 471, 2-(((3R,4S)-3-fluoro-1-((R)-3-hydroxybutanoyl)piperidin-4-yl)oxy)-5-(4-((4-(4-(oxetan-3-yl)piperazin-1-yl)phenyl)amino)-1,3,5-triazin-2-yl)benzonitrile] | 0.014 | 0.702 | 0.006
N#Cc1cc(-c2ncnc(Nc3ccc(N4CCN(C5COC5)CC4)cc3)n2)ccc1O[C@H]1CCN(C(=O)C2(O)COC2)C[C@H]1F [Example 472, 2-(((3R,4S)-3-fluoro-1-(3-hydroxyoxetane-3-carbonyl)piperidin-4-yl)oxy)-5-(4-((4-(4-(oxetan-3-yl)piperazin-1-yl)phenyl)amino)-1,3,5-triazin-2-yl)benzonitrile] | 0.043 | 0.971 | 0.019
N#Cc1cc(-c2ncnc(Nc3ccc(N4CCN(C5COC5)CC4)cc3)n2)ccc1O[C@H]1CCN(C(=O)c2cnco2)C[C@H]1F [Example 473, 2-(((3R,4S)-3-fluoro-1-(oxazole-5-carbonyl)piperidin-4-yl)oxy)-5-(4-((4-(4-(oxetan-3-yl)piperazin-1-yl)phenyl)amino)-1,3,5-triazin-2-yl)benzonitrile] | 0.003 | 0.771 | 0.003

Further compounds by falling IC50 (IKKε), results first:

IC50 (IKKε) [µM] | IC50 (hJAK2) [µM] | IC50 (TBK1) [µM] | Structure (SMILES)
0.364 | 0.706 | 0.146 | CC(C)[C@@H](O)C(=O)N1CC[C@H](Oc2ccc(-c3ncnc(Nc4ccc(N5CCN(C6COC6)CC5)cc4)n3)cc2C#N)[C@H](F)C1 [Example 465, 2-(((3R,4S)-3-fluoro-1-((R)-2-hydroxy-3-methylbutanoyl)piperidin-4-yl)oxy)-5-(4-((4-(4-(oxetan-3-yl)piperazin-1-yl)phenyl)amino)-1,3,5-triazin-2-yl)benzonitrile]
0.022 | 0.108 | 0.011 | CC(C)(C)n1cc(Nc2ncnc(-c3ccc(O[C@H]4CCN(C(=O)CC#N)C[C@H]4F)c(C#N)c3)n2)cn1 [Example 459, 5-(4-((1-(tert-butyl)-1H-pyrazol-4-yl)amino)-1,3,5-triazin-2-yl)-2-(((3R,4S)-1-(2-cyanoacetyl)-3-fluoropiperidin-4-yl)oxy)benzonitrile]
0.004 | ≥ 1 | 0.003 | C[C@H](O)C(=O)N1CC[C@H](Oc2ccc(-c3ncnc(Nc4ccc(N5CCN(C6COC6)CC5=O)cc4)n3)cc2C#N)[C@H](F)C1 [Example 462, 2-(((3R,4S)-3-fluoro-1-((S)-2-hydroxypropanoyl)piperidin-4-yl)oxy)-5-(4-((4-(4-(oxetan-3-yl)-2-oxopiperazin-1-yl)phenyl)amino)-1,3,5-triazin-2-yl)benzonitrile]
0.002 | 0.486 | 0.003 | C[C@H](O)C(=O)N1CC[C@H](Oc2ccc(-c3ncnc(Nc4ccc(N5CCN(C6COC6)[C@@H](CO)C5)cc4)n3)cc2C#N)[C@H](F)C1 [Example 468, 2-(((3R,4S)-3-fluoro-1-((S)-2-hydroxypropanoyl)piperidin-4-yl)oxy)-5-(4-((4-((R)-3-(hydroxymethyl)-4-(oxetan-3-yl)piperazin-1-yl)phenyl)amino)-1,3,5-triazin-2-yl)benzonitrile]
0.001 | 0.023 | 0.003 | Cc1n[nH]c(C(=O)N2CC[C@H](Oc3ccc(-c4ncnc(Nc5ccc(N6CCN(C7COC7)CC6)cc5)n4)cc3C#N)C(F)(F)C2)n1 [Example 452, (S)-2-((3,3-difluoro-1-(3-methyl-1H-1,2,4-triazole-5-carbonyl)piperidin-4-yl)oxy)-5-(4-((4-(4-(oxetan-3-yl)piperazin-1-yl)phenyl)amino)-1,3,5-triazin-2-yl)benzonitrile]
0.001 | 0.197 | 0.002 | C[C@H](O)C(=O)N1CC[C@H](Oc2ccc(-c3ncnc(Nc4ccc(N5CCN(C6COC6)[C@@H](CO)C5)cc4)n3)cc2C#N)C(F)(F)C1 [Example 469, 2-(((S)-3,3-difluoro-1-((S)-2-hydroxypropanoyl)piperidin-4-yl)oxy)-5-(4-((4-((R)-3-(hydroxymethyl)-4-(oxetan-3-yl)piperazin-1-yl)phenyl)amino)-1,3,5-triazin-2-yl)benzonitrile]
